SMILES strings stand for the structures. Where a SMILES comes first, the peptide text is derived from it. [ ]: non-standard residue; d: D form. NMeF = CN[C@@H](Cc1ccccc1)C(=O)O; dNMeF = CN[C@H](Cc1ccccc1)C(=O)O; NMeL = CN[C@@H](CC(C)C)C(=O)O; dNMeL = CN[C@H](CC(C)C)C(=O)O; Nle = CCCC[C@H](N)C(=O)O; dNMeA = CN[C@H](C)C(=O)O

This passage reports PAMPA_Papp_Avg, PAMPA_R1 and PAMPA_R3 results from article PMC9490236, “Accurate de novo design of membrane-traversing macrocycles” (Cell, 2022).

The conditions of the data set: PAMPA. In general terms: The PAMPA barrier holds no transporters, so it reflects passive diffusion.
As to `CC[C@@H](C)[C@H]1NC(=O)[C@H](CC(C)C)NC(=O)[C@@H](CC(C)C)NC(=O)[C@H](C(C)C)NC(=O)[C@@H]2CCCN2C(=O)[C@H](CC(C)C)N(C)C(=O)[C@@H](CC(C)C)NC(=O)[C@H](Cc2ccccc2)N(C)C(=O)[C@H]2CCCN2C1=O` [Design D9.38, DPRO *PHE DLEU *LEU PRO VAL DLEU LEU DILE] (cyclo(L[dI][dP][NMeF][dL][NMeL]PV[dL])), the PAMPA_Papp_Avg result is “BQL”, the PAMPA_R1 result was “BQL” and the PAMPA_R3 entry is given as “BQL”.

For `CC[C@H](C)[C@@H]1NC(=O)[C@H](C)NC(=O)[C@H](CC(C)C)NC(=O)[C@@H]2CCCN2C(=O)[C@@H](C(C)C)NC(=O)[C@H](CC(C)C)NC(=O)[C@@H]2CCCN2C(=O)[C@H]2CCCN2C(=O)[C@H](C)NC(=O)[C@H](Cc2ccccc2)NC(=O)[C@@H](CC(C)C)NC(=O)[C@H]2CCCN2C1=O` [Design D12.8, PHE ALA DPRO PRO LEU DVAL PRO LEU ALA ILE DPRO DLEU] (cyclo(L[dV]PLAI[dP][dL]FA[dP]P)), the PAMPA_Papp_Avg entry was “BQL”, the PAMPA_R1 entry is “BQL” and the PAMPA_R3 entry was “BQL”.

In the case of `CC(C)C[C@@H]1NC(=O)[C@@H](Cc2ccccc2)NC(=O)[C@@H]2CCCN2C(=O)[C@H]2CCCN2C(=O)[C@@H]2CCCN2C(=O)[C@H](C)NC(=O)[C@H](Cc2ccccc2)N(C)C(=O)[C@H]2CCCN2C(=O)[C@@H](CC(C)C)NC(=O)[C@@H](C(C)C)NC1=O` [Design D10.54, DVAL DLEU DPRO *PHE ALA PRO DPRO PRO DPHE LEU] (cyclo([dF]L[dV][dL][dP][NMeF]AP[dP]P)), the PAMPA_Papp_Avg entry is reported as “BQL”, the PAMPA_R1 result is “BQL” and the PAMPA_R3 entry is “BQL”.

Turning to `CC(C)[C@H]1NC(=O)[C@H](C)NC(=O)[C@@H]2CCCN2C(=O)[C@H]2CCCN2C(=O)[C@@H](C(C)C)NC(=O)[C@H]2CCCN2C(=O)[C@@H](C)NC(=O)[C@@H](Cc2ccccc2)N(C)C(=O)[C@H](Cc2ccccc2)NC1=O` [Design D9.35, DPRO DVAL DPRO PRO ALA DVAL PHE *DPHE DALA] (cyclo(A[dV]F[dNMeF][dA][dP][dV][dP]P)), the PAMPA_Papp_Avg result was “BQL”, the PAMPA_R1 result is “BQL” and the PAMPA_R3 result is listed as “BQL”.

Consider `CCCC[C@@H]1NC(=O)[C@H]2CCCN2C(=O)[C@H](C(C)C)NC(=O)[C@@H](CC(C)C)N(C)C(=O)[C@H](Cc2ccccc2)NC(=O)[C@H](CC(C)C)NC(=O)[C@@H](CC(C)C)N(C)C(=O)[C@@H]2CCCN2C(=O)[C@@H](CC(C)C)NC1=O` [Design D9.40, DPRO MET DLEU PRO *DLEU LEU PHE *DLEU VAL] (cyclo(F[dNMeL]V[dP][Nle][dL]P[dNMeL]L)), for which the PAMPA_Papp_Avg was found to be 2.38E-07, the PAMPA_R1 came out at 4.18E-07 and the PAMPA_R3 turned out to be 1.63E-07.

Consider `CC[C@@H](C)[C@H]1NC(=O)[C@@H]2CCCN2C(=O)[C@H](CC(C)C)NC(=O)[C@@H](CC(C)C)NC(=O)[C@@H](Cc2ccccc2)NC(=O)[C@@H](Cc2ccccc2)NC(=O)[C@@H](C)NC(=O)[C@H]2CCCN2C(=O)[C@@H]2CCCN2C(=O)[C@@H](C(C)C)NC(=O)[C@@H]2CCCN2C(=O)[C@H]2CCCN2C1=O` [Design D12.9, DILE DPRO PRO DVAL PRO DPRO DALA DPHE DPHE DLEU LEU PRO] (cyclo([dV]P[dP][dA][dF][dF][dL]LP[dI][dP]P)), for which the PAMPA_Papp_Avg entry was “BQL”, the PAMPA_R1 entry was “BQL” and the PAMPA_R3 result is recorded as “BQL”.

`CCCC[C@@H]1NC(=O)[C@H](CC(C)C)NC(=O)[C@@H]2CCCN2C(=O)[C@H]2CCCN2C(=O)[C@@H](C)NC(=O)[C@H]2CCCN2C(=O)[C@@H](CC(C)C)NC(=O)[C@@H](C)N(C)C(=O)[C@H](CC(C)C)N(C)C(=O)[C@@H](C)N(C)C1=O` [Design D10.40, MET *DALA *LEU *DALA DLEU DPRO DALA DPRO PRO LEU] (cyclo(L[Nle][dNMeA][NMeL][dNMeA][dL][dP][dA][dP]P)) registered a PAMPA_Papp_Avg of 7.09E-07, a PAMPA_R1 of 6.40E-07 and a PAMPA_R3 of 6.95E-07.

`CC(C)C[C@@H]1C(=O)N[C@H](CC(C)C)C(=O)N(C)[C@H](Cc2ccccc2)C(=O)N(C)[C@@H](CC(C)C)C(=O)N(C)[C@H](C)C(=O)N2CCC[C@H]2C(=O)N(C)[C@H](Cc2ccccc2)C(=O)N[C@@H](C(C)C)C(=O)N[C@H](CC(C)C)C(=O)N2CCC[C@H]2C(=O)N1C` [Design D10.14, *DPHE VAL DLEU PRO *DLEU DLEU *DPHE *LEU *DALA PRO] (cyclo([NMeL][dNMeA]P[dNMeF]V[dL]P[dNMeL][dL][dNMeF])): the PAMPA_Papp_Avg entry was “BQL”, the PAMPA_R1 entry is recorded as “BQL” and the PAMPA_R3 result is given as “BQL”.

In turn, `CC(C)C[C@@H]1NC(=O)[C@@H](C(C)C)NC(=O)[C@H](CC(C)C)N(C)C(=O)[C@H]2CCCN2C(=O)[C@@H](C(C)C)NC(=O)[C@H]2CCCN2C(=O)[C@@H](C(C)C)NC(=O)[C@@H](Cc2ccccc2)N(C)C(=O)[C@H](CC(C)C)N(C)C1=O` (single isomer, unassigned) [Design D9.8.p1, *LEU DVAL LEU *LEU *DPHE DVAL DPRO DVAL DPRO] came in with a PAMPA_Papp_Avg of 5.72E-06, a PAMPA_R1 of 5.56E-06 and a PAMPA_R3 of 6.18E-06.

For the compound `CC(C)C[C@@H]1NC(=O)[C@H](C)NC(=O)[C@H](C)NC(=O)[C@H]2CCCN2C(=O)[C@H](Cc2ccccc2)N(C)C(=O)[C@H]2CCCN2C(=O)[C@H](CC(C)C)N(C)C(=O)[C@@H](CC(C)C)N(C)C(=O)[C@H](Cc2ccccc2)NC(=O)[C@@H](CC(C)C)NC1=O` [Design D10.8, PHE *DLEU *LEU DPRO *PHE DPRO ALA ALA LEU DLEU] (cyclo(AAL[dL]F[dNMeL][NMeL][dP][NMeF][dP])), the PAMPA_Papp_Avg result was “BQL”, the PAMPA_R1 result is reported as “BQL” and the PAMPA_R3 entry is “BQL”.

For `CC(C)C[C@@H]1C(=O)N(C)[C@@H](Cc2ccccc2)C(=O)N[C@@H](C(C)C)C(=O)N2CCC[C@H]2C(=O)NCC(=O)N2CCC[C@H]2C(=O)N(C)[C@H](CC(C)C)C(=O)N[C@@H](C(C)C)C(=O)N[C@H](CC(C)C)C(=O)N1C` (single isomer, unassigned) [Design D9.43.p1, *DLEU VAL DLEU *DLEU *PHE VAL PRO GLY PRO], the PAMPA_Papp_Avg is on record as 9.46E-07, the PAMPA_R1 was 8.93E-07 and the PAMPA_R3 stood at 5.40E-07.

For `CC[C@@H](C)[C@H]1NC(=O)[C@H](CC(C)C)NC(=O)[C@H](CC(C)C)N(C)C(=O)[C@H]2CCCN2C(=O)[C@@H](CC(C)C)NC(=O)[C@@H]2CCCN2C(=O)[C@H](CC(C)C)N(C)C(=O)[C@@H](Cc2ccccc2)N(C)C(=O)[C@H](CC(C)C)N(C)C(=O)[C@H](CC(C)C)N(C)C1=O` [Design D10.12, *LEU LEU DILE *LEU *LEU *DPHE *LEU PRO DLEU DPRO] (cyclo(L[dI][NMeL][NMeL][dNMeF][NMeL]P[dL][dP][NMeL])), the PAMPA_Papp_Avg entry is reported as “BQL”, the PAMPA_R1 result is listed as “BQL” and the PAMPA_R3 entry is given as “BQL”.
